Measurements as given in ChEMBL document CHEMBL4152382, “Discovery of Tarantula Venom-Derived NaV1.7-Inhibitory JzTx-V Peptide 5-Br-Trp24 Analogue AM-6120 with Systemic Block of Histamine-Induced Pruritis” (J Med Chem, 2018).

What was measured:
[1] = target: Sodium channel protein type 9 subunit alpha (Homo sapiens, UniProt Q15858); assay: Inhibition of human Nav1.7 expressed in HEK293 cells at holding potential of -125 mV […] by patchxpress-based electrophysiology assay; assay type: cell-based
Sequence of Sodium channel protein type 9 subunit alpha (Q15858 whole entry): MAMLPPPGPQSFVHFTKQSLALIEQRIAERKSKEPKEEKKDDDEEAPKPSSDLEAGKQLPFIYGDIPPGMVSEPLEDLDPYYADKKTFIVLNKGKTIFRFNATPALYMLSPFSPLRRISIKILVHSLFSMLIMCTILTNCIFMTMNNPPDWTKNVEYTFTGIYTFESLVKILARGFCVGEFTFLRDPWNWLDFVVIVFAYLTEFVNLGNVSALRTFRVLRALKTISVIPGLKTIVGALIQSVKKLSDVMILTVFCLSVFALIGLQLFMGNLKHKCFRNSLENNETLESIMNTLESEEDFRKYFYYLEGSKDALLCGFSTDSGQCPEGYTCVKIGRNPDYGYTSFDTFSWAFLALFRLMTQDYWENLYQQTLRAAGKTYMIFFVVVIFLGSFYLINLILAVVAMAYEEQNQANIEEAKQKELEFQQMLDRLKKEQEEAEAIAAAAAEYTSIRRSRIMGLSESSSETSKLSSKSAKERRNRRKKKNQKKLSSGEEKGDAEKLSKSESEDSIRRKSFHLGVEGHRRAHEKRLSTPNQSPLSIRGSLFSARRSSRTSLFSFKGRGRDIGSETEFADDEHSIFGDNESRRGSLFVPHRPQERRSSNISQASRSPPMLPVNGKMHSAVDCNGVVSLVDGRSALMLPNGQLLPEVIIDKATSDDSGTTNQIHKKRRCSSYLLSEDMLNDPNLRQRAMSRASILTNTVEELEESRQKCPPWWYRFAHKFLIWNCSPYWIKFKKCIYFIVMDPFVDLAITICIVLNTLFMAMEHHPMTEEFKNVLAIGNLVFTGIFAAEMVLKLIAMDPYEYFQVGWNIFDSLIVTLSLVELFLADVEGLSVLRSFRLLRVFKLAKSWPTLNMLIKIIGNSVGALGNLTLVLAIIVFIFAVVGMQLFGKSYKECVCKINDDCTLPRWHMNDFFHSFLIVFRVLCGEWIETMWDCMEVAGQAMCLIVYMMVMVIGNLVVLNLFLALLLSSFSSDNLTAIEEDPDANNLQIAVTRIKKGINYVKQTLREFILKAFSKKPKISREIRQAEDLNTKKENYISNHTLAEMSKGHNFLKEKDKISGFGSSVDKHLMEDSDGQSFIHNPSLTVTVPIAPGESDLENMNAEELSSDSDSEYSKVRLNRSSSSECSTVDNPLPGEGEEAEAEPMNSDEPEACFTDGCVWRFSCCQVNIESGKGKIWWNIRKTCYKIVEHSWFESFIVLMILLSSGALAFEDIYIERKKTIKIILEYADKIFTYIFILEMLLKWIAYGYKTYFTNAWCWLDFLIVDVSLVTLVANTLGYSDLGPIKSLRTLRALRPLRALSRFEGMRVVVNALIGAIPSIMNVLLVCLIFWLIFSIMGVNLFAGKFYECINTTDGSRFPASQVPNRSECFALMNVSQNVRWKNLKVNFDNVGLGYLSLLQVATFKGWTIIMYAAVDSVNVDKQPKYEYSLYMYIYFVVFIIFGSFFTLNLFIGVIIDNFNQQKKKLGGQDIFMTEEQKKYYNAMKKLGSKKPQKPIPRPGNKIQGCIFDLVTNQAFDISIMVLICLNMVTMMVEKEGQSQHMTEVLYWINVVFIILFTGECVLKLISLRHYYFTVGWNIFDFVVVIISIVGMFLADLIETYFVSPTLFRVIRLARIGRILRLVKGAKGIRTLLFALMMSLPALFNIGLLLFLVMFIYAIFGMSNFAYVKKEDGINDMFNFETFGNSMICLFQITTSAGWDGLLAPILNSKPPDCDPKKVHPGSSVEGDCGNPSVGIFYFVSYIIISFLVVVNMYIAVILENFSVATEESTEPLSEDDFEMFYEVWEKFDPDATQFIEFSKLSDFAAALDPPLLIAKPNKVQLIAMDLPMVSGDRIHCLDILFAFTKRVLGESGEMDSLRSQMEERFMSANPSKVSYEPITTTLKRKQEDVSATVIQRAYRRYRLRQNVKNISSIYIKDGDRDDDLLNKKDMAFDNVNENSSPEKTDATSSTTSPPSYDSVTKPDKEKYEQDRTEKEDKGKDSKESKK

[2] = target: Sodium channel protein type 4 subunit alpha (Homo sapiens, UniProt P35499); assay: Inhibition of human Nav1.4 expressed in HEK293 cells at holding potential of -125 mV […] by patchxpress-based electrophysiology assay; assay type: cell-based
Sequence of Sodium channel protein type 4 subunit alpha (P35499 whole entry): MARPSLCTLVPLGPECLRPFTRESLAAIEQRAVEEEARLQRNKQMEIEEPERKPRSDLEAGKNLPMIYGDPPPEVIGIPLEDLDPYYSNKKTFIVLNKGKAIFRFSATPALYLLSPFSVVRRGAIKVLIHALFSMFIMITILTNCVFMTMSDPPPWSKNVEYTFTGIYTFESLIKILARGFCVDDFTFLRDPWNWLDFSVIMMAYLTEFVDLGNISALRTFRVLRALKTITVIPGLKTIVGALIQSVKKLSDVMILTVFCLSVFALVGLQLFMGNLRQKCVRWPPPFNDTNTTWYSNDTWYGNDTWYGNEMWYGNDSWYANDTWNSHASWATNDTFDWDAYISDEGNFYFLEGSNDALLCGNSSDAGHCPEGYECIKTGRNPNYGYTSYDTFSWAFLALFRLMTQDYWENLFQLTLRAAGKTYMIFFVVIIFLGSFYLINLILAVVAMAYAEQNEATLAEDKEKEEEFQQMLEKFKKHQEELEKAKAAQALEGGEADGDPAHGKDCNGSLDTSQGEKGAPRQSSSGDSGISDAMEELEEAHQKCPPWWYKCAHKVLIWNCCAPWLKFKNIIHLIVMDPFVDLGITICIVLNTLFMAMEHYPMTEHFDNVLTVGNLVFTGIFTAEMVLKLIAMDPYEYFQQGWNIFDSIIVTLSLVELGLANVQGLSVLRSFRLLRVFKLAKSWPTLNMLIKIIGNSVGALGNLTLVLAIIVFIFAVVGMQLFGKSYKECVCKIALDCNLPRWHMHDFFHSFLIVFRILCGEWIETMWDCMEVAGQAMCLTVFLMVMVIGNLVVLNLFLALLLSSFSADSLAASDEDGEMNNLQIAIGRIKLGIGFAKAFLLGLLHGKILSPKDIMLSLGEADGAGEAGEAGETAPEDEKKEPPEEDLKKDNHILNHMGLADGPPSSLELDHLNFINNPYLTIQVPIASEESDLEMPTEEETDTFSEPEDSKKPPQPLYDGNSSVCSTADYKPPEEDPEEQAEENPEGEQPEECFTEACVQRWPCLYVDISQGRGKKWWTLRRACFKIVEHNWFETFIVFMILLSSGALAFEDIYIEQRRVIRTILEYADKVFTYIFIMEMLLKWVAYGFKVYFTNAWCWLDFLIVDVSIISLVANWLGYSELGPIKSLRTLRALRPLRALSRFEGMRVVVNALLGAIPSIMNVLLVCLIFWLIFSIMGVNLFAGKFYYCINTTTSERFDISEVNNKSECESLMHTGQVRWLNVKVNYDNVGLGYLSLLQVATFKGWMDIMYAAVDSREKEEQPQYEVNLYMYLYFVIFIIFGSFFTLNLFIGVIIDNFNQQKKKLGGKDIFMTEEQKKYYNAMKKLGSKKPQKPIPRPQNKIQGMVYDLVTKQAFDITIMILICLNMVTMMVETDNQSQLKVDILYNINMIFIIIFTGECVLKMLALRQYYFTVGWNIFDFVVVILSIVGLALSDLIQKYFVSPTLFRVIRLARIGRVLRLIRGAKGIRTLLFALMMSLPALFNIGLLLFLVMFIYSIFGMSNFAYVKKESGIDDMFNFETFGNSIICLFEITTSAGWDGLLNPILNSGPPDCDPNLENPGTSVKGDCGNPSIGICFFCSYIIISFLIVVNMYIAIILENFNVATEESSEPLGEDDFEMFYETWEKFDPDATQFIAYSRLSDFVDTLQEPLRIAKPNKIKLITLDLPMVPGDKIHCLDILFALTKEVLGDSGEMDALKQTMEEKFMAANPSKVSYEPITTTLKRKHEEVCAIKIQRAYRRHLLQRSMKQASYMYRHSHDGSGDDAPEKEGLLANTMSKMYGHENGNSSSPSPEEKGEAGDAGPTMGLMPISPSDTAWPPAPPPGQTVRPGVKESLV

C#CC[C@H](N)C(=O)N[C@@H](Cc1ccc(O)cc1)C(=O)N[C@H]1CSSC[C@@H]2NC(=O)[C@@H]3CSSC[C@@H](C(=O)N[C@@H](CCCNC(=N)N)C(=O)N[C@@H](CCCCN)C(=O)N[C@@H](CCC(=O)O)C(=O)N[C@@H](CCc4ccccc4)C(N)=O)NC(=O)[C@H](Cc4c[nH]c5ccccc45)NC(=O)[C@H](CC(C)C)NC(=O)[C@H](CCCCN)NC(=O)[C@H](CSSC[C@H](NC(=O)[C@H]([C@@H](C)O)NC(=O)[C@H](Cc4c[nH]c5ccccc45)NC(=O)[C@H](CCCC)NC(=O)[C@H](Cc4c[nH]c5ccccc45)NC(=O)[C@H](CCCCN)NC(=O)[C@H](CCC(N)=O)NC1=O)C(=O)N[C@@H](CC(=O)O)C(=O)N[C@@H](CO)C(=O)N[C@@H](CCCCN)C(=O)N[C@@H](CCCNC(=N)N)C(=O)N[C@@H](C)C(=O)N3)NC(=O)[C@H](CCCNC(=N)N)NC(=O)[C@H](CC(C)C)NC(=O)CNC(=O)[C@H](CCC(=O)O)NC2=O
IC50 [1]: 0.3 nM
IC50 [2]: 23 nM

C#CC[C@H](N)C(=O)N[C@@H](Cc1ccc(O)cc1)C(=O)N[C@H]1CSSC[C@@H]2NC(=O)[C@@H]3CSSC[C@@H](C(=O)N[C@@H](CCCNC(=N)N)C(=O)N[C@@H](CCCCN)C(=O)N[C@@H](CCC(=O)O)C(=O)N[C@H](C(N)=O)[C@@H](C)CC)NC(=O)[C@H](Cc4c[nH]c5ccc(Cl)cc45)NC(=O)[C@H](CC(C)C)NC(=O)[C@H](CCCCN)NC(=O)[C@H](CSSC[C@H](NC(=O)[C@H]([C@@H](C)O)NC(=O)[C@H](Cc4c[nH]c5ccccc45)NC(=O)[C@H](CCCC)NC(=O)[C@H](Cc4c[nH]c5ccccc45)NC(=O)[C@H](CCCCN)NC(=O)[C@H](CCC(N)=O)NC1=O)C(=O)N[C@@H](CC(=O)O)C(=O)N[C@@H](CO)C(=O)N[C@@H](CCCCN)C(=O)N[C@@H](CCCNC(=N)N)C(=O)N[C@@H](C)C(=O)N3)NC(=O)[C@H](CCCNC(=N)N)NC(=O)[C@H](CC(C)C)NC(=O)CNC(=O)[C@H](CCC(=O)O)NC2=O
IC50 [1]: 3.1 nM
IC50 [2]: 23 nM

C#CC[C@H](NC(=O)[C@@H](N)CCC(=O)O)C(=O)N[C@H]1CSSC[C@@H]2NC(=O)[C@@H]3CSSC[C@@H](C(=O)N[C@@H](CCCNC(=N)N)C(=O)N[C@@H](CCCCN)C(=O)N[C@@H](CCC(=O)O)C(=O)N[C@H](C(N)=O)[C@@H](C)CC)NC(=O)[C@H](Cc4c[nH]c5ccc(Br)cc45)NC(=O)[C@H](CC(C)C)NC(=O)[C@H](CCCCN)NC(=O)[C@H](CSSC[C@H](NC(=O)[C@H]([C@@H](C)O)NC(=O)[C@H](Cc4c[nH]c5ccccc45)NC(=O)[C@H](CCCC)NC(=O)[C@H](Cc4c[nH]c5ccccc45)NC(=O)[C@H](CCCCN)NC(=O)[C@H](CCC(N)=O)NC1=O)C(=O)N[C@@H](CC(=O)O)C(=O)N[C@@H](CO)C(=O)N[C@@H](CCCCN)C(=O)N[C@@H](CCCNC(=N)N)C(=O)N[C@@H](CCC(=O)O)C(=O)N3)NC(=O)[C@H](CCCNC(=N)N)NC(=O)[C@H](CC(C)C)NC(=O)CNC(=O)[C@H](CCC(=O)O)NC2=O
IC50 [1]: 1.3 nM
IC50 [2]: 182 nM

C#CC[C@H](NC(=O)[C@@H](N)CCC(=O)O)C(=O)N[C@H]1CSSC[C@@H]2NC(=O)[C@@H]3CSSC[C@@H](C(=O)N[C@@H](CCCNC(=N)N)C(=O)N[C@@H](CCCCN)C(=O)N[C@@H](CCC(=O)O)C(=O)N[C@H](C(N)=O)[C@@H](C)CC)NC(=O)[C@H](Cc4c[nH]c5ccc(Br)cc45)NC(=O)[C@H](CC(C)C)NC(=O)[C@H](CCCCN)NC(=O)[C@H](CSSC[C@H](NC(=O)[C@H]([C@@H](C)O)NC(=O)[C@H](Cc4c[nH]c5ccccc45)NC(=O)[C@H](CCCC)NC(=O)[C@H](Cc4c[nH]c5ccccc45)NC(=O)[C@H](CCCCN)NC(=O)[C@H](CCC(N)=O)NC1=O)C(=O)N[C@@H](CC(=O)O)C(=O)N[C@@H](CCC(=O)O)C(=O)N[C@@H](CCCCN)C(=O)N[C@@H](CCCNC(=N)N)C(=O)N[C@@H](C)C(=O)N3)NC(=O)[C@H](CCCNC(=N)N)NC(=O)[C@H](CC(C)C)NC(=O)CNC(=O)[C@H](CCC(=O)O)NC2=O
IC50 [1]: 2.5 nM
IC50 [2]: 89 nM

C#CC[C@H](N)C(=O)N[C@@H](Cc1ccc(O)cc1)C(=O)N[C@H]1CSSC[C@@H]2NC(=O)[C@@H]3CSSC[C@@H](C(=O)N[C@@H](CCCNC(=N)N)C(=O)N[C@@H](CCCCN)C(=O)N[C@@H](CCC(=O)O)C(=O)N[C@@H](Cc4c[nH]c5ccccc45)C(N)=O)NC(=O)[C@H](Cc4c[nH]c5ccccc45)NC(=O)[C@H](CC(C)C)NC(=O)[C@H](CCCCN)NC(=O)[C@H](CSSC[C@H](NC(=O)[C@H]([C@@H](C)O)NC(=O)[C@H](Cc4c[nH]c5ccccc45)NC(=O)[C@H](CCCC)NC(=O)[C@H](Cc4c[nH]c5ccccc45)NC(=O)[C@H](CCCCN)NC(=O)[C@H](CCC(N)=O)NC1=O)C(=O)N[C@@H](CC(=O)O)C(=O)N[C@@H](CO)C(=O)N[C@@H](CCCCN)C(=O)N[C@@H](CCCNC(=N)N)C(=O)N[C@@H](C)C(=O)N3)NC(=O)[C@H](CCCNC(=N)N)NC(=O)[C@H](CC(C)C)NC(=O)CNC(=O)[C@H](CCC(=O)O)NC2=O
IC50 [1]: 0.2 nM
IC50 [2]: 92 nM

C#CC[C@H](N)C(=O)N[C@@H](Cc1ccc(O)cc1)C(=O)N[C@H]1CSSC[C@@H]2NC(=O)[C@@H]3CSSC[C@@H](C(=O)N[C@@H](CCCNC(=N)N)C(=O)N[C@@H](CCCCN)C(=O)N[C@@H](CCC(=O)O)C(=O)N[C@H](C(N)=O)[C@@H](C)CC)NC(=O)[C@H](Cc4c[nH]c5cc(Br)ccc45)NC(=O)[C@H](CC(C)C)NC(=O)[C@H](CCCCN)NC(=O)[C@H](CSSC[C@H](NC(=O)[C@H]([C@@H](C)O)NC(=O)[C@H](Cc4c[nH]c5ccccc45)NC(=O)[C@H](CCCC)NC(=O)[C@H](Cc4c[nH]c5ccccc45)NC(=O)[C@H](CCCCN)NC(=O)[C@H](CCC(N)=O)NC1=O)C(=O)N[C@@H](CC(=O)O)C(=O)N[C@@H](CO)C(=O)N[C@@H](CCCCN)C(=O)N[C@@H](CCCNC(=N)N)C(=O)N[C@@H](C)C(=O)N3)NC(=O)[C@H](CCCNC(=N)N)NC(=O)[C@H](CC(C)C)NC(=O)CNC(=O)[C@H](CCC(=O)O)NC2=O
IC50 [1]: 8.9 nM
IC50 [2]: 39 nM

C#CC[C@H](N)C(=O)N[C@@H](Cc1ccc(O)cc1)C(=O)N[C@H]1CSSC[C@@H]2NC(=O)[C@@H]3CSSC[C@@H](C(=O)N[C@@H](CCCNC(=N)N)C(=O)N[C@@H](CCCCN)C(=O)N[C@@H](CCC(=O)O)C(=O)N[C@@H](Cc4ccccc4)C(N)=O)NC(=O)[C@H](Cc4c[nH]c5ccccc45)NC(=O)[C@H](CC(C)C)NC(=O)[C@H](CCCCN)NC(=O)[C@H](CSSC[C@H](NC(=O)[C@H]([C@@H](C)O)NC(=O)[C@H](Cc4c[nH]c5ccccc45)NC(=O)[C@H](CCCC)NC(=O)[C@H](Cc4c[nH]c5ccccc45)NC(=O)[C@H](CCCCN)NC(=O)[C@H](CCC(N)=O)NC1=O)C(=O)N[C@@H](CC(=O)O)C(=O)N[C@@H](CO)C(=O)N[C@@H](CCCCN)C(=O)N[C@@H](CCCNC(=N)N)C(=O)N[C@@H](C)C(=O)N3)NC(=O)[C@H](CCCNC(=N)N)NC(=O)[C@H](CC(C)C)NC(=O)CNC(=O)[C@H](CCC(=O)O)NC2=O
IC50 [1]: 0.2 nM
IC50 [2]: 162 nM
